Counter-ions that a name gives are not always drawn. Like-named read-outs stand apart in the source and are kept apart here.
Legend:
[1] = biological target: CDK2/Cyclin A (Homo sapiens, UniProt P24941); test: Inhibition of CDK2/Cyclin A Retinoblastoma Kinase Activity; format: biochemical; conditions: for Ki: apparent Ki, CDK2/proteolyzed cyclin A, Rb fragment substrate, 25 μM ATP; for CDK2 % Inhibition At 0.03 μM: Table 2
In short: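 Radiometric filter-binding readout of phosphate transfer to an Rb substrate fragment by purified CDK2/truncated cyclin A at 10 or 19 nM. Run at pH 7.4 with 25 μM ATP, 30 °C, 60–75 min, linear rates; background without enzyme subtracted, Ki from competitive-inhibition models.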

[2] = biological target: human CDK4 and genetically truncated (1-264) cyclin D3 (Homo sapiens, UniProt P11802); test: Inhibition of CDK4/Cyclin D Retinoblastoma Kinase Activity; format: biochemical; conditions: for Ki: apparent Ki, CDK4/truncated cyclin D3, Rb fragment substrate, 25 μM ATP
Chain of human CDK4 and genetically truncated (1-264) cyclin D3 (P11802 whole entry, the tested form may be a part): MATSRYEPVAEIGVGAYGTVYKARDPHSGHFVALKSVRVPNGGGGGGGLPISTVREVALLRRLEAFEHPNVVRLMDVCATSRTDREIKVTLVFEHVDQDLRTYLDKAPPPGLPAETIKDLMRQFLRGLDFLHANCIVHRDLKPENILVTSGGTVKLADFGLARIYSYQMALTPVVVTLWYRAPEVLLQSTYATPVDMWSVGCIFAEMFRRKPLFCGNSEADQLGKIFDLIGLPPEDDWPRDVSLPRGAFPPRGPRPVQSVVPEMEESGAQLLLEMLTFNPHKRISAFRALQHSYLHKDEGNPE
Chain of human CDK4 and genetically truncated (1-264) cyclin D3 (P30281 1-264 partner): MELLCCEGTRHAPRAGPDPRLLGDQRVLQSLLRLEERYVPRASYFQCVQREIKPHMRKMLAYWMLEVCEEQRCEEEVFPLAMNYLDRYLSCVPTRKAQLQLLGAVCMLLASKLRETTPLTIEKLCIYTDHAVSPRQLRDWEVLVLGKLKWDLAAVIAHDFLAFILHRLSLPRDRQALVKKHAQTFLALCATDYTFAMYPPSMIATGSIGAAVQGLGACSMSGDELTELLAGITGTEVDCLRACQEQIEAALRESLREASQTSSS
In short: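 Apparent Ki values come from competitive or competitive tight-binding inhibition fits of background-corrected 32P/33P incorporation into His-tagged Rb fragment (386-928), captured on nitrocellulose. Reaction: 5 nM insect-cell-expressed human CDK4 with cyclin D3 (1-264), 25 μM ATP, pH 7.4 HEPES, 2% DMSO, 30° C., 20 min, extended to 60 min for tight-binding inhibitors.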

[3] = system: HCT-116 cell line; test: Inhibition of cell growth, tetrazolium salt (MTT) assay; format: cell-based; conditions: for IC50: Homo sapiens, HCT-116, 120 h, MTT, three to five days, read-out: HCT-116 IC50; for HCT-116 % Inhibition at 0.25 μM: 0.25 μM compound
In short: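 HCT-116 cells in McCoy's 5A medium received compound 4 h after plating (0.5% v/v DMSO) and were incubated three to five days at 37° C, 5% CO2. MTT (0.2 mg/mL final) then added for 4 h; DMSO-solubilized formazan read at 540 nm against 0.5% DMSO-treated controls.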

## Nc1nc(NC2CCN(C(=S)Oc3ccc(F)cc3)CC2)sc1C(=O)c1c(F)cccc1F [Example C11, 4-[4-Amino-5-(2,6-difluoro-benzoyl)-thiazol-2-ylamino}-piperidine-1-carbothioic acid —O-(4-Fluoro-phenyl) ester]
[1]
  Ki: 6.5 nM
[2]
  Ki: 10 nM
[3]; first HCT-116 column (c4)
  IC50: 400 nM
[3]; second HCT-116 column (c5)
  IC50: 2700 nM

## COc1ccc(O)c(C(=O)N2CCC(Nc3nc(N)c(C(=O)c4c(F)cccc4F)s3)CC2)c1 [Example R121]
[1]; at 0.03 μM
  CDK2 % Inhibition at 0.03 μM: 57%
[2]; at 0.03 μM
  CDK4 % Inhibition at 0.03 μM: 60%
[3]; HCT-116 cells, at 0.1 μM
  HCT-116 % Inhibition at 0.1 μM: 0%
[3]; HCT-116 cells
  HCT-116 5 Inhibition at 0.25 μM: 37

## Nc1nc(NC2CCN(C(=O)c3ccc(OC(F)(F)F)cc3)CC2)sc1C(=O)c1c(F)cccc1F [Example R22]
[1]; at 0.03 μM
  CDK2 % Inhibition at 0.03 μM: 22%
[2]; at 0.03 μM
  CDK4 % Inhibition at 0.03 μM: 58%
[3]; HCT-116 cells, at 0.1 μM
  HCT-116 % Inhibition at 0.1 μM: 7%
[3]; HCT-116 cells
  HCT-116 5 Inhibition at 0.25 μM: 48

## CC(C)(C)c1ccc(S(=O)(=O)N2CCC(Nc3nc(N)c(C(=O)c4c(F)cccc4F)s3)CC2)cc1 [Example P22]
[1]; 0.03 μM compound, Table 3
  CDK2 % Inhibition at 0.03 μM: 29%
[2]; 0.03 μM compound, Table 3
  CDK4 % Inhibition at 0.03 μM: 38%
[3]; 0.1 μM compound, HCT-116, Table 3
  HCT-116 % Inhibition at 0.1 μM: 27%
[3]; HCT-116, Table 3
  HCT-116 % Inhibition at 0.25 μM: 31%

## Cc1ccc(NC(=O)N2CCC(Nc3nc(N)c(C(=O)c4c(F)cccc4F)s3)CC2)cc1 [Example O24]
[1]; 0.03 μM compound
  CDK2 % Inhibition At 0.03 μM: 34%
[2]; 0.03 μM compound, Table 2
  CDK4 % Inhibition at 0.03 μM: 21%
[3]; HCT-116, Table 2
  HCT-116 % Inhibition at 0.25 μM: 6%

## CC1CC(NCCS(=O)(=O)N2CCC(Nc3nc(N)c(C(=O)c4c(F)cccc4F)s3)CC2)CC(C)(C)C1 (stereo not drawn) [Example K44]
[1]
  Ki: 0.49 nM
[2]
  Ki: 2.5 nM
[3]; first HCT-116 column (c4)
  IC50: 100 nM
[3]; second HCT-116 column (c5)
  IC50: 360 nM

## Nc1nc(NC2CCN(S(=O)(=O)c3ccc(F)cc3)CC2)sc1C(=O)c1c(F)cccc1F [Example F17, 1-{4-Amino-2-[1-(4-fluoro-benzenesulfonyl)-piperidin-4-ylamino]-thiazol-5-yl}1-(2,6-difluoro-phenyl)-methanone]
[1]
  Ki: < 1 nM
[2]
  Ki: 1.4 nM
[3]; first HCT-116 column (c4)
  IC50: 70 nM
[3]; second HCT-116 column (c5)
  IC50: 230 nM

## Nc1nc(NC2CCN(S(=O)(=O)c3ccc(N4CCN(C=O)CC4)nc3)CC2)sc1C(=O)c1c(F)cccc1F [Example G16, Trifluoroacetic Acid Salt]
[1]
  Ki: 0.51 nM
[2]
  Ki: 0.63 nM
[3]; first HCT-116 column (c4)
  IC50: 290 nM
[3]; second HCT-116 column (c5)
  IC50: > 5000 nM

## COc1cc(NC(=O)N2CCC(Nc3nc(N)c(C(=O)c4c(F)cccc4F)s3)CC2)cc(OC)c1 [Example O45]
[1]; 0.03 μM compound
  CDK2 % Inhibition At 0.03 μM: 35%
[2]; 0.03 μM compound, Table 2
  CDK4 % Inhibition at 0.03 μM: 17%
[3]; HCT-116, Table 2
  HCT-116 % Inhibition at 0.25 μM: 32%

## COc1cccc(OC)c1C(=O)N1CCC(Nc2nc(N)c(C(=O)c3c(F)cccc3F)s2)CC1 [Example R118]
[1]; at 0.03 μM
  CDK2 % Inhibition at 0.03 μM: 36%
[2]; at 0.03 μM
  CDK4 % Inhibition at 0.03 μM: 33%
[3]; HCT-116 cells, at 0.1 μM
  HCT-116 % Inhibition at 0.1 μM: 7%
[3]; HCT-116 cells
  HCT-116 5 Inhibition at 0.25 μM: 47

## Cc1cccc(NC(=O)N2CCC(Nc3nc(N)c(C(=O)c4c(F)cccc4F)s3)CC2)c1 [Example O17]
[1]; 0.03 μM compound
  CDK2 % Inhibition At 0.03 μM: 32%
[2]; 0.03 μM compound, Table 2
  CDK4 % Inhibition at 0.03 μM: 6%
[3]; HCT-116, Table 2
  HCT-116 % Inhibition at 0.25 μM: 8%

## CN1CCN(S(=O)(=O)N2CCC(Nc3nc(N)c(C(=O)c4c(F)cccc4F)s3)CC2)CC1 [Example E3, {4-Amino-2-[1-(4-methyl-piperazine-1-sulfonyl)-piperidin-4-ylamino]-thiazol-5-yl}-(2,6-difluoro-phenyl)-methanone]
[1]
  Ki: 12 nM
[2]
  Ki: 5.4 nM
[3]; first HCT-116 column (c4)
  IC50: 330 nM
[3]; second HCT-116 column (c5)
  IC50: 780 nM

## Nc1nc(NC2CCN(C(=O)Nc3cc(Cl)nc(Cl)c3)CC2)sc1C(=O)c1c(F)cccc1F [Example O64]
[1]; 0.03 μM compound
  CDK2 % Inhibition At 0.03 μM: 32%
[2]; 0.03 μM compound, Table 2
  CDK4 % Inhibition at 0.03 μM: 7%
[3]; HCT-116, Table 2
  HCT-116 % Inhibition at 0.25 μM: 37%

— patent publication US20050101595A1, “N-containing cycloalkyl-substituted amino-thiazole derivatives and pharmaceutical compositions for inhibiting cell proliferation and methods for their use” (PFIZER INC., priority 2003, published 2005)
